Experimental data reported in patent US12102685B2, “Immodulator peptides covalently modified with small molecules” (priority 2020, dated 2024).
Peptide text beside a SMILES is read from it.

Assays:
[1] = Competition binding assay to metal-charged NTA-coated plates (x2B b)
Description: NTA-metal-affinity fluorescence assay was performed using 96-well NTA-metal-coated plates readily available from commercial sources such as Qiagen (Germantown, MD). NTA was charged with ferrous or ferric iron, zinc, copper, calcium, vanadium, ruthenium, cobalt, titanium, manganese or other metals. 400 ng of FITC-labeled immodulator peptide (or biotinylated immodulator peptide complexed to Alexa-488-labeled streptavidin) in PBS buffer was added per plate. After incubation at room temperature for 60 minutes, excess peptide was washed off and peptide was detected by measuring fluorescence (excitation 490 nm, emmission 525 nm) in a fluorometer. • (a) Using FITC-labeled IM3 peptide (1 ug/well) in the fluorescent binding assay: • EDTA-treated control: 2,251±1,186 • Ferrous iron: 170,441±11,264 (p<0.001)* • Copper: 13,644±5566 (p<0.05)* • Calcium: 48,822±11,990 (p<0.01)* • *p values are relative to EDTA-treated control • (b) Competition binding assay to ferrous iron, calcium, copper and zinc-charged NTA-coated plates using FITC-labeled IM3 peptide (0.5 uM) and 8× (4 uM) unlabelled competitor peptides IM3N1, IM3N2 (*all comparisons to PBS control are p<0.01); # fluorescent value of binding to […] was set at 100.

[2] = FITC-PI(4,5)P2 binding at pH5.2 with metals and cold PPI (x9D)
Description: To a streptavidin-coated 96-well plate, 400 ng peptide IM3 or IM5 were bound per well. Each well received 100 uL of sodium acetate buffer pH5.2 containing 500 uM EDTA, Calcium Chloride, Zinc Chloride or Ferric Chloride. Each well additionally contained 50 ng FITC-PI(4,5)P2 plus 2 ug of either cold PI(3,4)P2, PI(4,5)P2, PI(3,5)P2 or buffer. All assays were done in sextuplicate. After incubation at room temperature for 60 mins, wells were washed and counted in a fluorometer set at FITC excitation/emmission wavelengths.

[3] = FITC-PI(4,5)P2 binding to plate-bound peptide with calcium (x9A)
Description: Immodulator peptides IM1, IM3 and IM5 (400 ng/well) in PBS were bound to streptavidin-coated 96-well plates at room temperature for 60 minutes, in the presence or absence of 500 uM calcium chloride. Each well also received 200 ng cold PPI plus 10 ng FITC-labeled PI(4,5)P2 or PI(4)P1. The tables below show the relative fluorescence (with/without calcium background) expressed as a percentage of the highest binder, FITC-PI(4,5)P2+cold PI(3,5)P2, which was 2,496 fluorescence units. Background binding without calcium was, in all cases, 200-300 fluorescence units.

[4] = molecular target: T1, DNA-binding domain (DBD) of RXR-alpha (Homo sapiens, UniProt P19793); assay: Binding to RXRa-DBD with or without ferric iron (x3B)
T1 construct: purchased Abcam, Cambridge, MA
T1 sequence (P19793 111-228): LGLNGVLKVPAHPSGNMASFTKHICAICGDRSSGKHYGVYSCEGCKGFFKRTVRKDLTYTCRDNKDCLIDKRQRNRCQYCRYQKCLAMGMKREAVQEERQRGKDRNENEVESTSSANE
Description: Experiment x3B. Binding of immodulator peptides to DNA-binding domain (DBD) of RXR-alpha, with or without ferric iron. 100 ng/well recombinant RXRa-DBD (Abcam, Cambridge, MA) was adsorbed to wells of a 96-well plate for 60 minutes at RT, then blocked with 200 uL 1% BSA in PBS buffer overnight. Plate was washed and 800 ng/well Streptavidin-Alexa 488 conjugate (SA488)-labelled IM peptide was added, with or without ferric chloride (5 uM) or 5-fold excess RXRa-DBD. The plate was incubated for 2 hours at room temperature, washed and counted in a standard fluorometer (excitation/emission 485/525 nm).

[5] = molecular target: T2, full-length huNur77 (Homo sapiens, UniProt P22736); assay: Binding to full-length huNur77 (x3C); conditions: 333 ng/well labelled peptide
T2 construct: purchased Abcam, Cambridge, MA
Description: 400 ng/well recombinant Nur77 (Abcam, Cambridge, MA) was adsorbed to wells of a 96-well plate for 90 minutes at RT, then blocked with 200 uL 1% BSA in PBS buffer overnight. Plate was washed and 333 ng/well Streptavidin-Alexa 488 conjugate (SA488)-labelled IM3, IM4 or no peptide was added. The plate was incubated for 60 min at room temperature, washed and counted in a standard fluorometer (excitation/emission 485/525 nm). Background (buffer alone) was subtracted.

T2 sequence (P22736 whole entry): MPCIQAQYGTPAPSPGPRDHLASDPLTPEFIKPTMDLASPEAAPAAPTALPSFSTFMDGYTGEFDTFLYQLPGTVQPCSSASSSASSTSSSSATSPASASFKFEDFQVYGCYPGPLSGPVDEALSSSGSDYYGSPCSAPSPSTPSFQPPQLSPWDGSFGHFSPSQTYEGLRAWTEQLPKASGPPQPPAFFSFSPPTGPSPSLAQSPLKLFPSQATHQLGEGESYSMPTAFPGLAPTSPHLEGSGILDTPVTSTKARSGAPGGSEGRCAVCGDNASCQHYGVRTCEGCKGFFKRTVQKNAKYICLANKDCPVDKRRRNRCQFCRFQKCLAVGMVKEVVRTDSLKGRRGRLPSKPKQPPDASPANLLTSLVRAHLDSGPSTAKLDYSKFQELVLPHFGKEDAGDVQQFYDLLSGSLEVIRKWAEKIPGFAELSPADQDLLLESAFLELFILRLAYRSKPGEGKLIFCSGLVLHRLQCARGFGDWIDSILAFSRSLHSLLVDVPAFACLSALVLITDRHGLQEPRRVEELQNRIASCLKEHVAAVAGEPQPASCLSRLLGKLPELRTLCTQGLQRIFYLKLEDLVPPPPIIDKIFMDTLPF

For `N=C(N)NCCC[C@H](NC(=O)CNC(=O)[C@H](CCCCN)NC(=O)[C@H](CO)NC(=O)[C@@H]1CCCN1C(=O)[C@H](CCCNC(=N)N)NC(=O)[C@H](CS)NC(=O)[C@H](CCC(N)=O)NC(=O)[C@H](CCCCN)NC(=O)[C@H](CCCCN)NC(=O)[C@H](CCCCN)NC(=O)[C@H](Cc1ccc(O)cc1)NC(=O)[C@H](Cc1ccccc1)NC(=O)CNC(=O)[C@H](CCCCN)NC(=O)[C@@H](N)CCCCN)C(=O)N[C@@H](CCCCN)C(=O)N[C@@H](CCCNC(=N)N)C(=O)NCC(=O)N[C@@H](Cc1ccccc1)C(=O)N[C@@H](CS)C(=O)N[C@@H](Cc1c[nH]c2ccccc12)C(=O)O` [IM3] (H-KKGFYKKKQCRPSKGRKRGFCW-OH; N-terminus and C-terminus assumed), the “FITC-IM3 fluorescence, no competitor (PBS)” value ([1]; Calcium, set at 100) was 100.0 ± 1.9, the “FITC-IM3 fluorescence, no competitor (PBS)” value ([1]; Copper, calcium = 100) was 53.0 ± 0.6 and the “FITC-IM3 fluorescence, no competitor (PBS)” value ([1]; Ferrous iron, calcium = 100) was 85.6 ± 5.8. The “FITC-IM3 fluorescence, no competitor (PBS)” value ([1]; Zinc, calcium = 100) was 85.9 ± 5.5, the “fluorescence, FITC-PI(4,5)P2 bound” value ([2]; Buffer, Calcium) was 142 ± 29 and the “fluorescence, FITC-PI(4,5)P2 bound” value ([2]; Buffer, EDTA) was 30 ± 22. The “fluorescence, FITC-PI(4,5)P2 bound” value ([2]; Buffer, Ferric Iron) was 772 ± 168, the “fluorescence, FITC-PI(4,5)P2 bound” value ([2]; Buffer, Zinc) was 138 ± 388 and the “fluorescence, FITC-PI(4,5)P2 bound” value ([2]; Cold PI(3,4)P2, Calcium) was 48 ± 61. For the same molecule, the “fluorescence, FITC-PI(4,5)P2 bound” value ([2]; Cold PI(3,4)P2, EDTA) was 26 ± 25, the “fluorescence, FITC-PI(4,5)P2 bound” value ([2]; Cold PI(3,4)P2, Ferric Iron) was 2,162 ± 269 and the “fluorescence, FITC-PI(4,5)P2 bound” value ([2]; Cold PI(3,4)P2, Zinc) was 65 ± 16. The “fluorescence, FITC-PI(4,5)P2 bound” value ([2]; Cold PI(3,5)P2, Calcium) was 88 ± 22, the “fluorescence, FITC-PI(4,5)P2 bound” value ([2]; Cold PI(3,5)P2, EDTA) was 63 ± 26 and the “fluorescence, FITC-PI(4,5)P2 bound” value ([2]; Cold PI(3,5)P2, Ferric Iron) was 2,036 ± 303. The “fluorescence, FITC-PI(4,5)P2 bound” value ([2]; Cold PI(3,5)P2, Zinc) was 118 ± 43, the “fluorescence, FITC-PI(4,5)P2 bound” value ([2]; Cold PI(4,5)P2, Calcium) was 32 ± 23 and the “fluorescence, FITC-PI(4,5)P2 bound” value ([2]; Cold PI(4,5)P2, EDTA) was 10 ± 16. The “fluorescence, FITC-PI(4,5)P2 bound” value ([2]; Cold PI(4,5)P2, Ferric Iron) was 1,464 ± 320, the “fluorescence, FITC-PI(4,5)P2 bound” value ([2]; Cold PI(4,5)P2, Zinc) was 21 ± 22 and the “fluorescence of the highest binder” value ([3]; FITC-PI(4,5)P2 + cold PI(3,5)P2, calcium) was 2,496 fluorescence units. For the same molecule, the “relative fluorescence, FITC-PI(4,5)P2 bound” value ([3]; cold PPI: 3,4,5-P3, calcium) was 3.2 percentage of the highest binder, the “relative fluorescence, FITC-PI(4,5)P2 bound” value ([3]; cold PPI: 3,4-P2, calcium) was 51.5 percentage of the highest binder and the “relative fluorescence, FITC-PI(4,5)P2 bound” value ([3]; cold PPI: 3,5-P2, calcium) was 100.0 percentage of the highest binder. The “relative fluorescence, FITC-PI(4,5)P2 bound” value ([3]; cold PPI: 3-P1, calcium) was 1.7 percentage of the highest binder, the “relative fluorescence, FITC-PI(4,5)P2 bound” value ([3]; cold PPI: 4,5-P2, calcium) was 63.7 percentage of the highest binder and the “relative fluorescence, FITC-PI(4,5)P2 bound” value ([3]; cold PPI: 4-P1, calcium) was 6.3 percentage of the highest binder. The “relative fluorescence, FITC-PI(4,5)P2 bound” value ([3]; cold PPI: 5-P1, calcium) was 10.4 percentage of the highest binder, the “relative fluorescence, FITC-PI(4,5)P2 bound” value ([3]; cold PPI: None, 500 uM calcium chloride) was 2.2 percentage of the highest binder and the fluorescence ([4]; 100 ng/well RXRa-DBD, no FeCl3, no excess RXRa-DBD) was 687.3 ± 55.4. It also gave a fluorescence ([4]; FeCl3 5 uM, 5X excess RXRa-DBD) of 837.0 ± 30.5, a fluorescence ([4]; FeCl3 5 uM, no excess RXRa-DBD) of 1161.3 ± 78.5 and a fluorescence ([5]; Nur77 400 ng/well) of 488 ± 38. The fluorescence ([5]; no Nur77 adsorbed) was 59 ± 17.
